Key:
[1] = test system: MDA-MB-468 cells; assay: Annexin V / PI flow cytometry, MDA-MB-468 cells
Experimental: (§1) Annexin V and PI ([…]) staining by flow cytometry was utilized to determine percentages of live, early apoptotic, late apoptotic, and necrotic cells. In short, cells were treated with cytotoxic agents and stained with an Annexin V/P1 labeling kit (Life Technologies). Cells were analyzed on an LSRII flow cytometer (BD Biosciences). As shown in Tables 3-9, cells were classified as: Live (Annexin V negative, PI negative), Early apoptotic (Annexin V positive, PI negative), Late apoptotic (Annexin V positive, PI positive), and Necrotic. (Annexin V negative, PI positive). […] Annexin V (attached to AlexaFluor 488) is shown on the x-axis, while PI is shown on the y-axis. The lower left quadrant indicates live cells, the upper left quadrant indicates necrotic cells, the upper right quadrant indicates late apoptotic cells and the lower right quadrant indicates early apoptotic cells. Debris was eliminated from this analysis.

[2] = test system: MDA-MB-468 (Breast); assay: cells; type: cell-based; conditions: cell viability
Experimental: (§2) The cell lines were then measured for cell viability and reported as IC50 for each treatment.

[3] = test system: NCI-H460 (Lung); assay: cells; type: cell-based; conditions: cell viability
Experimental: as §2

[4] = test system: NCI-H1299 (Lung); assay: cells; type: cell-based; conditions: NCI-HI1299 (Lung), cell viability
Experimental: as §2

[5] = test system: PC-3 (Prostate); assay: cells; type: cell-based; conditions: cell viability
Experimental: as §2

[6] = test system: HCT116 (Colorectal); assay: cells; type: cell-based
Experimental: as §2

[7] = test system: HT29 (Colorectal); assay: cells; type: cell-based
Experimental: as §2

[8] = test system: Capan-2 (Pancreas); assay: cells; type: cell-based; conditions: cell viability
Experimental: as §2

[9] = test system: MiaPaCa-1 (Pancreas); assay: cells; type: cell-based; conditions: cell viability
Experimental: as §2

[10] = test system: MDA-MB-468, NCI-H1299, NCI-H460, Capan-2, MiaPaCa-1, HT29, HCT116 and PC-3 cancer cell lines; assay: Cell viability of the cancer cell line panel (result in words); type: cell-based; conditions: eight cancer cell lines, serial concentrations
Experimental: as §2

[11] = test system: PANC-1 cells; assay: Annexin V / PI flow cytometry, PANC-1 cells; type: cell-based; conditions: GEL for 48 hours
Experimental: as §1

[12] = test system: 22RV1 cells; assay: Annexin V / PI flow cytometry, 22RV1 cells; type: cell-based; conditions: GEL for 48 hours
Experimental: as §1

[13] = test system: COLO 829 cells; assay: Annexin V / PI flow cytometry, COLO 829 cells; type: cell-based
Experimental: as §1

[14] = 100 nM, GEL for 48 hours, Table 5
[15] = 1 uM, GEL for 48 hours, Table 5
[16] = 1 uM, GEL for 48 hours, Table 4 titled 72 Hours
[17] = 100 nM, PTX for 24 hours, Table 3 titled 72 Hours
[18] = 1 uM, PTX for 24 hours, Table 3 titled 72 Hours

## CC(=O)O[C@H]1C(=O)[C@@]2(C)[C@H]([C@H](OC(=O)c3ccccc3)[C@]3(O)C[C@H](OC(=O)[C@H](OC(=O)CCCC(=O)Nc4ccc(CCCCCCCCCCCCCCCCCCOP(=O)([O-])OCC[N+](C)(C)C)cc4)[C@@H](NC(=O)c4ccccc4)c4ccccc4)C(C)=C1C3(C)C)[C@]1(OC(C)=O)CO[C@@H]1C[C@@H]2O [CLR1601]
[1]; 1 uM, 48 hrs (Table 8)
  Early Apoptotic: 1.49 % of total cells
  Late Apoptotic: 6 % of total cells
  Live (cell viability): 79.4 % of total cells
  Necrotic: 13.1 % of total cells
[1]; 1 uM, 72 hrs
  Early Apoptotic: 9.8 % of total cells
  Late Apoptotic: 57.5 % of total cells
  Live (cell viability): 17 % of total cells
  Necrotic: 15.8 % of total cells
[1]; 5 uM, 72 hrs
  Early Apoptotic: 2.71 % of total cells
  Late Apoptotic: 57.9 % of total cells
  Live (cell viability): 17.8 % of total cells
  Necrotic: 21.6 % of total cells
[2]
  IC50: 3.77 nM
[3]
  IC50: 29.5 nM
[4]
  IC50: 60.3 nM
[5]
  IC50: 34.4 nM
[6]; cell viability
  IC50: 7.6 nM
[7]; cell viability
  IC50: 92.2 nM
[8]
  IC50: 56.7 nM
[9]
  IC50: 37.3 nM
[10]
  reduction of cancer cell line viability: capable of reducing cell viability

## CC(=O)O[C@H]1C(=O)[C@]2(C)[C@@H](OC(=O)NCCCC(=O)Nc3ccc(CCCCCCCCCCCCCCCCCCOP(=O)([O-])OCC[N+](C)(C)C)cc3)C[C@H]3OC[C@@]3(OC(C)=O)[C@H]2[C@H](OC(=O)c2ccccc2)[C@]2(O)C[C@H](OC(=O)[C@H](O)[C@@H](NC(=O)c3ccccc3)c3ccccc3)C(C)=C1C2(C)C [CLR1602]
[10]
  reduction of cancer cell line viability: not capable of significantly reducing cancer cell line viability

## CC(=O)O[C@H]1C(=O)[C@@]2(C)[C@H]([C@H](OC(=O)c3ccccc3)[C@]3(O)C[C@H](OC(=O)[C@H](OC(=O)OCCCCC(=O)Nc4ccc(CCCCCCCCCCCCCCCCCCOP(=O)([O-])OCC[N+](C)(C)C)cc4)[C@@H](NC(=O)c4ccccc4)c4ccccc4)C(C)=C1C3(C)C)[C@]1(OC(C)=O)CO[C@@H]1C[C@@H]2O [CLR1603]
[1]; 1 uM, 48 hrs (Table 8)
  Early Apoptotic: 1.4 % of total cells
  Late Apoptotic: 4.78 % of total cells
  Live (cell viability): 81.4 % of total cells
  Necrotic: 12.4 % of total cells
[1]; 1 uM, 72 hrs
  Early Apoptotic: 6.74 % of total cells
  Late Apoptotic: 49.1 % of total cells
  Live (cell viability): 22.2 % of total cells
  Necrotic: 22 % of total cells
[1]; 5 uM, 72 hrs
  Early Apoptotic: 2.65 % of total cells
  Late Apoptotic: 55.2 % of total cells
  Live (cell viability): 19.7 % of total cells
  Necrotic: 22.5 % of total cells
[10]
  reduction of cancer cell line viability: capable of reducing cell viability

## COC1=C2C[C@@H](C)C[C@H](OC)[C@H](O)[C@@H](C)/C=C(\C)[C@H](OC(N)=O)[C@@H](OC)/C=C\C=C(/C)C(=O)NC(=CC1=O)C2=O [GEL, geldanamycin]
[11]; 100 nM
  Early Apoptotic: 4.68 % of total cells
  Late Apoptotic: 12.6 % of total cells
  Live (cell viability): 23.3 % of total cells
  Necrotic: 59.4 % of total cells
[11]; 1 uM
  Early Apoptotic: 1.93 % of total cells
  Late Apoptotic: 12.8 % of total cells
  Live (cell viability): 18.9 % of total cells
  Necrotic: 66.4 % of total cells
[12]; 100 nM
  Early Apoptotic: 5.09 % of total cells
  Late Apoptotic: 28.4 % of total cells
  Live (cell viability): 19.4 % of total cells
  Necrotic: 47.1 % of total cells
[12]; 1 uM
  Early Apoptotic: 6.22 % of total cells
  Late Apoptotic: 19.1 % of total cells
  Live (cell viability): 28.1 % of total cells
  Necrotic: 46.6 % of total cells
[13]; 100 nM, 48 hrs (Table 9)
  Early Apoptotic: 12.2 % of total cells
  Late Apoptotic: 29 % of total cells
  Live (cell viability): 36.1 % of total cells
  Necrotic: 22.7 % of total cells
[13]; [14]
  Early Apoptotic: 21.9 % of total cells
  Late Apoptotic: 40.8 % of total cells
  Live (cell viability): 32.4 % of total cells
  Necrotic: 4.9 % of total cells
[13]; 1 uM, 48 hrs (Table 9)
  Early Apoptotic: 14.4 % of total cells
  Late Apoptotic: 38.3 % of total cells
  Live (cell viability): 24.6 % of total cells
  Necrotic: 22.7 % of total cells
[13]; [15]
  Early Apoptotic: 21.4 % of total cells
  Late Apoptotic: 53.7 % of total cells
  Live (cell viability): 18.6 % of total cells
  Necrotic: 6.42 % of total cells
[1]; [16]
  Early Apoptotic: 19.6 % of total cells
  Late Apoptotic: 37.9 % of total cells
  Live (cell viability): 26.2 % of total cells
  Necrotic: 16.3 % of total cells

## CC(=O)O[C@H]1C(=O)[C@@]2(C)[C@H]([C@H](OC(=O)c3ccccc3)[C@]3(O)C[C@H](OC(=O)[C@H](O)[C@@H](NC(=O)c4ccccc4)c4ccccc4)C(C)=C1C3(C)C)[C@]1(OC(C)=O)CO[C@@H]1C[C@@H]2O [Paclitaxel, paclitaxel]
[1]; 100 nM, 48 hrs (Table 8)
  Early Apoptotic: 2.47 % of total cells
  Late Apoptotic: 5.54 % of total cells
  Live (cell viability): 77.9 % of total cells
  Necrotic: 14.1 % of total cells
[1]; [17]
  Early Apoptotic: 5.9 % of total cells
  Late Apoptotic: 31.4 % of total cells
  Live (cell viability): 53.8 % of total cells
  Necrotic: 8.89 % of total cells
[1]; 1 uM, 48 hrs (Table 8)
  Early Apoptotic: 1.97 % of total cells
  Late Apoptotic: 9.18 % of total cells
  Live (cell viability): 73.3 % of total cells
  Necrotic: 15.6 % of total cells
[1]; [18]
  Early Apoptotic: 5.5 % of total cells
  Late Apoptotic: 34.8 % of total cells
  Live (cell viability): 48.9 % of total cells
  Necrotic: 10.8 % of total cells
[2]; Homo sapiens
  IC50: 1.9 nM
[3]; Homo sapiens
  IC50: 1.66 nM
[4]; Homo sapiens, NCI-H1299
  IC50: 1.82 nM
[5]
  IC50: 0.9 nM
[6]; Homo sapiens, HCT-116, cell viability
  IC50: 0.87 nM
[7]; Homo sapiens, HT-29, cell viability
  IC50: 1.07 nM
[8]; Homo sapiens
  IC50: 7.91 nM
[9]
  IC50: 1.32 nM

— patent US11439709B2, “Phospholipid ether analogs as cancer-targeting drug vehicles” (Cellectar Biosciences, Inc., priority 2014, dated 2022)
